# In ChEMBL document CHEMBL1149776, “Synthesis and biological evaluation of some thiazolyl and thiadiazolyl derivatives of 1H-pyrazole as anti-inflammatory antimicrobial agents” (Eur J Med Chem, 2008):
# Experiments:
# Rattus norvegicus [1] = assay: Gastrointestinal toxicity in albino rat assessed as ulcerogenic effect at 30 umol/kg, po for 3 days; type: organism-based; settings: in vivo, 72 h
# Escherichia coli = assay: Antimicrobial activity against Escherichia coli ATCC 25922; type: functional
# Rattus norvegicus [2] = species: Rattus norvegicus; assay: Antiinflammatory activity in Sprague-Dawley rat cotton pellet-induced granuloma model; type: functional
# Staphylococcus aureus = assay: Antimicrobial activity against Staphylococcus aureus ATCC 19433; type: functional
# Candida albicans = assay: Antimicrobial activity against Candida albicans; type: functional
# [3] = target: Prostaglandin G/H synthase 1 (Homo sapiens, UniProt P23219); assay: Inhibition of human platelet COX1
# Rattus norvegicus [4] = assay: Antiinflammatory activity in albino rat assessed as protection against carrageenan-induced paw edema at 10 umol/kg, sc administered 1 hr prior to carrageenan challenge relative to indomethacin; type: functional
# Mus musculus [5] = assay: Toxicity in mouse upto 40 mg/kg, po assessed as mortality after 24 hrs; type: organism-based; set-up: dose 40 mg/kg, route oral; settings: in vivo
# Mus musculus [6] = assay: Toxicity in parenterally dosed mouse upto 65 mg/kg assessed as mortality upto 7 days; type: organism-based; set-up: dose 65 mg/kg; settings: in vivo, 168 h
# Chain of Prostaglandin G/H synthase 1 (P23219 whole entry): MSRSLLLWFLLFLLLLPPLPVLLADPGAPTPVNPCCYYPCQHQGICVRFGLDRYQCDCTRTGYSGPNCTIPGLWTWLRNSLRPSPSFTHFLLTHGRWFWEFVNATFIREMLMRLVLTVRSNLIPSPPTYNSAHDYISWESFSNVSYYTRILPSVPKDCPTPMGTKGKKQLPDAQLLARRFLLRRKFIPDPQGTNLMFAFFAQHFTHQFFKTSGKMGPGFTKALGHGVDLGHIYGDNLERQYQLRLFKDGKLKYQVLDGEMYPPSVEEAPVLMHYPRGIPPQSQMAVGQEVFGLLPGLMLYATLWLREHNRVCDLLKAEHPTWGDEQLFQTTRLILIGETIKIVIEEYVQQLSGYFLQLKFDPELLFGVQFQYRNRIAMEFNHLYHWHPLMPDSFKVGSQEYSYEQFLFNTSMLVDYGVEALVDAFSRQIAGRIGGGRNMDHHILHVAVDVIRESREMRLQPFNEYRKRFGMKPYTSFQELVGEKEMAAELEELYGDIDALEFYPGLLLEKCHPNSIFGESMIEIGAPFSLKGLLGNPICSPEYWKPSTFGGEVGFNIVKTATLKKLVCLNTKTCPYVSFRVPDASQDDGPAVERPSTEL
compound,measurement,setting,value
CC(=O)N(C1=NN(C(C)=O)C(c2cn(-c3ccc(S(=O)(=O)/N=C/N(C)C)cc3)nc2-c2ccccc2)S1)c1ccc(C)cc1 (stereo unspecified),Activity,Rattus norvegicus [1],10%
same,MIC,Escherichia coli,50 µg/mL
same,ED50,Rattus norvegicus [2],14.86 µmol
same,MIC,Staphylococcus aureus,100 µg/mL
same,MIC,Candida albicans,25 µg/mL
CN(C)/C=N/S(=O)(=O)c1ccc(-n2cc(-c3nnc(Nc4ccccc4)s3)c(-c3ccccc3)n2)cc1,Activity,Rattus norvegicus [1],0%
same,MIC,Escherichia coli,100 µg/mL
same,ED50,Rattus norvegicus [2],11.38 µmol
same,MIC,Staphylococcus aureus,> 200 µg/mL
same,MIC,Candida albicans,100 µg/mL
CN(C)/C=N/S(=O)(=O)c1ccc(-n2cc(-c3nnc(Nc4ccc(Cl)cc4)s3)c(-c3ccccc3)n2)cc1,Activity,Rattus norvegicus [1],10%
same,MIC,Escherichia coli,100 µg/mL
same,ED50,Rattus norvegicus [2],11.88 µmol
same,MIC,Staphylococcus aureus,100 µg/mL
same,MIC,Candida albicans,> 200 µg/mL
CC(=O)N(C1=NN(C(C)=O)C(c2cn(-c3ccc(S(=O)(=O)/N=C/N(C)C)cc3)nc2-c2ccccc2)S1)c1ccc(Cl)cc1 (stereo unspecified),Activity,Rattus norvegicus [1],10%
same,MIC,Escherichia coli,50 µg/mL
same,ED50,Rattus norvegicus [2],13.96 µmol
same,MIC,Staphylococcus aureus,> 200 µg/mL
same,MIC,Candida albicans,25 µg/mL
CN(C)/C=N/S(=O)(=O)c1ccc(-n2cc(/C=N\N=C3/SCC(=O)N3c3ccccc3)c(-c3ccccc3)n2)cc1,Activity,Rattus norvegicus [1],10%
same,MIC,Escherichia coli,50 µg/mL
same,ED50,Rattus norvegicus [2],13.36 µmol
same,MIC,Staphylococcus aureus,25 µg/mL
same,MIC,Candida albicans,100 µg/mL
Cc1ccc(-n2c(-c3ccc(Br)cc3)cs/c2=N\N=C/c2cn(-c3ccc(S(=O)(=O)/N=C/N(C)C)cc3)nc2-c2ccccc2)cc1,Activity,Rattus norvegicus [1],0%
same,MIC,Escherichia coli,50 µg/mL
same,ED50,Rattus norvegicus [2],11.06 µmol
same,MIC,Staphylococcus aureus,50 µg/mL
same,MIC,Candida albicans,100 µg/mL
same,IC50,[3],96.25 µmol
same,Activity,Rattus norvegicus [4],94.46%
Cc1ccc(N2C(=O)CS/C2=N\N=C/c2cn(-c3ccc(S(=O)(=O)/N=C/N(C)C)cc3)nc2-c2ccccc2)cc1,Activity,Rattus norvegicus [1],20%
same,MIC,Escherichia coli,25 µg/mL
same,ED50,Rattus norvegicus [2],9.34 µmol
same,MIC,Staphylococcus aureus,100 µg/mL
same,MIC,Candida albicans,100 µg/mL
same,IC50,[3],87.12 µmol
same,Activity,Mus musculus [5],Non-toxic
same,Activity,Rattus norvegicus [4],98.65%
same,Activity,Mus musculus [6],Non-toxic
CN(C)/C=N/S(=O)(=O)c1ccc(-n2cc(/C=N\N=c3/scc(-c4ccc(Br)cc4)n3-c3ccccc3)c(-c3ccccc3)n2)cc1,Activity,Rattus norvegicus [1],0%
same,MIC,Escherichia coli,25 µg/mL
same,ED50,Rattus norvegicus [2],12.96 µmol
same,MIC,Staphylococcus aureus,25 µg/mL
same,MIC,Candida albicans,> 200 µg/mL
CC(=O)N(C1=NN(C(C)=O)C(c2cn(-c3ccc(S(=O)(=O)/N=C/N(C)C)cc3)nc2-c2ccccc2)S1)c1ccccc1 (stereo unspecified),Activity,Rattus norvegicus [1],20%
same,MIC,Escherichia coli,50 µg/mL
same,ED50,Rattus norvegicus [2],12.54 µmol
same,MIC,Staphylococcus aureus,> 200 µg/mL
same,MIC,Candida albicans,50 µg/mL
CC1(C)S[C@@H]2[C@H](NC(=O)[C@H](N)c3ccccc3)C(=O)N2[C@H]1C(=O)O [AMPICILLIN],MIC,Escherichia coli,25 µg/mL
same,MIC,Staphylococcus aureus,12.5 µg/mL
Cc1ccc(Nc2nnc(-c3cn(-c4ccc(S(=O)(=O)/N=C/N(C)C)cc4)nc3-c3ccccc3)s2)cc1,Activity,Rattus norvegicus [1],10%
same,MIC,Escherichia coli,100 µg/mL
same,ED50,Rattus norvegicus [2],12.46 µmol
same,MIC,Staphylococcus aureus,25 µg/mL
same,MIC,Candida albicans,> 200 µg/mL
CN(C)/C=N/S(=O)(=O)c1ccc(-n2cc(/C=N\N=C3/SCC(=O)N3c3ccc(Cl)cc3)c(-c3ccccc3)n2)cc1,Activity,Rattus norvegicus [1],10%
same,MIC,Escherichia coli,100 µg/mL
same,ED50,Rattus norvegicus [2],9.12 µmol
same,MIC,Staphylococcus aureus,25 µg/mL
same,MIC,Candida albicans,> 200 µg/mL
same,IC50,[3],> 100 µmol
same,Activity,Mus musculus [5],Non-toxic
same,Activity,Rattus norvegicus [4],104.16%
same,Activity,Mus musculus [6],Non-toxic
CN(C)/C=N/S(=O)(=O)c1ccc(-n2cc(/C=N\N=c3/scc(-c4ccc(Br)cc4)n3-c3ccc(Cl)cc3)c(-c3ccccc3)n2)cc1,Activity,Rattus norvegicus [1],0%
same,MIC,Escherichia coli,100 µg/mL
same,ED50,Rattus norvegicus [2],9.56 µmol
same,MIC,Staphylococcus aureus,100 µg/mL
same,MIC,Candida albicans,50 µg/mL
same,Activity,Mus musculus [5],Non-toxic
same,Activity,Mus musculus [6],Non-toxic
COc1ccc2c(c1)c(CC(=O)O)c(C)n2C(=O)c1ccc(Cl)cc1 [INDOMETHACIN],Activity,Rattus norvegicus [1],100%
same,ED50,Rattus norvegicus [2],9.58 µmol
